# Laboratory results: patent US20070082880A1 (priority 2005, published 2007)
# Assays:
# [1] = biological target: T1, human PKCθ full length enzyme (Homo sapiens, UniProt Q04759); assay: PKCθ IMAP Assay; format: biochemical; details: average value when one or more samples were tested; ATP 6 uM, PKCθ 1 nM
# T1 construct: human PKCθ full length enzyme (Panvera Catalog No. P2996); purchased Panvera P2996
# Outline: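 Full-length human PKCθ (1 nM final) with 6 uM ATP and 100 nM 5FAM-labelled peptide, 5% DMSO, 3.0 mM DTT in reaction buffer. 25 min at room temperature; IMAP bead binding 20 min, fluorescence polarization read. Compounds 2:1 serially diluted; no-ATP and no-enzyme wells as controls.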
# T1 sequence (Q04759 whole entry): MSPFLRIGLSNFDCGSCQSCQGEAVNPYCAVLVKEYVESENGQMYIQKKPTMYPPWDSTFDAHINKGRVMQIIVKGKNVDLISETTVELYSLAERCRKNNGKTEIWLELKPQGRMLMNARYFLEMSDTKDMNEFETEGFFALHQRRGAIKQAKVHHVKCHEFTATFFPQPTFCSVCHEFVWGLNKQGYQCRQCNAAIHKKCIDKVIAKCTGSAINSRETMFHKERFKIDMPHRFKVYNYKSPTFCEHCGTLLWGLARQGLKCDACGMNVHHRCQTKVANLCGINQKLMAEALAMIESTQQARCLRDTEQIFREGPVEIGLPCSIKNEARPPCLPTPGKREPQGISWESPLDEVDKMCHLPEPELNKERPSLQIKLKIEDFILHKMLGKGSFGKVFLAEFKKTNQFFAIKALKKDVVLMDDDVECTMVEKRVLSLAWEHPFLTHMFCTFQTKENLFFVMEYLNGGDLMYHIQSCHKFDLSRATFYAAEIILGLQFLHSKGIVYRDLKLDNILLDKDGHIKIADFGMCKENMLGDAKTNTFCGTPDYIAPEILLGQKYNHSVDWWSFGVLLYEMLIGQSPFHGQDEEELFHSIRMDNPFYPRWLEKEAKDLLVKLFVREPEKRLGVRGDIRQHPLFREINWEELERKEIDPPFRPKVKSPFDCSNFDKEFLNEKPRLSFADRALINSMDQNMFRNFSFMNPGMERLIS
SMILES,melting point,IC50 [1] [nM]
"CN1CCN(CCC#Cc2cc3c(Nc4ccc5[nH]ccc5c4)c(C#N)cnc3s2)CC1 [Compound 221, 4-(1H-indol-5-ylamino)-2-[4-(4-methylpiperazin-1-yl)but-1-yn-1-yl]thieno[2,3-b]pyridine-5-carbonitrile]",195 to 197 °C,170
"COC(=O)c1cc2c(Nc3ccc4[nH]ccc4c3C)c(C#N)cnc2s1 [Compound 245, methyl 5-cyano-4-[(4-methyl-1H-indol-5-yl)amino]thieno[2,3-b]pyridine-2-carboxylate]",255 °C,68
"Cc1c(Nc2c(C#N)cnc3sc(C(=O)O)cc23)ccc2[nH]ccc12 [Compound 247, 5-cyano-4-[(4-methyl-1H-indol-5-yl)amino]thieno[2,3-b]pyridine-2-carboxylic acid]",287 °C,219
"Cc1c(Nc2c(C#N)cnc3sc(C(=O)N4CCCC4)cc23)ccc2[nH]ccc12 [Compound 249, 4-[(4-methyl-1H-indol-5-yl)amino]-2-(pyrrolidin-1-ylcarbonyl)thieno[2,3-b]pyridine-5-carbonitrile]",256 °C,48
"CN1CCN(CC/C=C/c2cc3c(Nc4ccc5[nH]ccc5c4)c(C#N)cnc3s2)CC1 [Compound 273, 4-(1H-indol-5-ylamino)-2-[(1E)-4-(4-methylpiperazin-1-yl)but-1-en-1-yl]thieno[2,3-b]pyridine-5-carbonitrile]",220 °C,447
"CN1CCN(CCCCc2cc3c(Nc4ccc5[nH]ccc5c4)c(C#N)cnc3s2)CC1 [Compound 274, 4-(1H-indol-5-ylamino)-2-[4-(4-methylpiperazin-1-yl)butyl]thieno[2,3-b]pyridine-5-carbonitrile]",120 °C (dec.),983
"Cc1c(Nc2c(C#N)cnc3sc(/C=C/C(=O)O)cc23)ccc2[nH]ccc12 [Compound 283, (2E)-3-{5-cyano-4-[(4-methyl-1H-indol-5-yl)amino]thieno[2,3-b]pyridin-2-yl}acrylic acid]",> 350 °C,21
"Cc1c(Nc2c(C#N)cnc3sc(/C=C/C(=O)O)c(C)c23)ccc2[nH]ccc12 [Compound 287, (2E)-3-{5-Cyano-3-methyl-4-[(4-methyl-1H-indol-5-yl)amino]thieno[2,3-b]pyridin-2-yl}acrylic acid]",329 °C,47
"Cc1c(Nc2c(C#N)cnc3sc(CCC(=O)N4CCCC4)cc23)ccc2[nH]ccc12 [Compound 315, 4-[(4-methyl-1H-indol-5-yl)amino]-2-(3-oxo-3-pyrrolidin-1-ylpropyl)thieno[2,3-b]pyridine-5-carbonitrile]",175 °C,251
"Cc1c(Nc2c(C#N)cnc3sc(C#Cc4ccc(N(C)C)nc4)cc23)ccc2[nH]ccc12 [Compound 445, 2-{[6-(dimethylamino)pyridin-3-yl]ethynyl}-4-[(4-methyl-1H-indol-5-yl)amino]thieno[2,3-b]pyridine-5-carbonitrile]",> 260 °C,550
"Cc1c(Nc2c(C#N)cnc3sc(C#Cc4coc(CN5CCN(C)CC5)c4)cc23)ccc2[nH]ccc12 [Compound 447, 4-[(4-methyl-1H-indol-5-yl)amino]-2-({5-[(4-methylpiperazin-1-yl)methyl]-3-furyl}ethynyl)thieno[2,3-b]pyridine-5-carbonitrile]",216 to 218 °C,171
"Cc1c(Nc2c(C#N)cnc3sc(C#Cc4ccc(CN(C)C)s4)cc23)ccc2[nH]ccc12 [Compound 448, 2-({5-[(dimethylamino)methyl]-2-thienyl}ethynyl)-4-[(4-methyl-1H-indol-5-yl)amino]thieno[2,3-b]pyridine-5-carbonitrile]",185 to 187 °C,83
"Cc1c(Nc2c(C#N)cnc3sc(C#Cc4ccc(CN(C)C)o4)cc23)ccc2[nH]ccc12 [Compound 449, 2-({5-[(dimethylamino)methyl]-2-furyl}ethynyl)-4-[(4-methyl-1H-indol-5-yl)amino]thieno[2,3-b]pyridine-5-carbonitrile]",218 to 220 °C,25
"Cc1c(Nc2c(C#N)cnc3sc(C#Cc4cncc(C(=O)N(C)C)c4)cc23)ccc2[nH]ccc12 [Compound 451, 5-({5-cyano-4-[(4-methyl-1H-indol-5-yl)amino]thieno[2,3-b]pyridin-2-yl}ethynyl)-N,N-dimethylnicotinamide]",> 260 °C,24
"Cc1c(Nc2c(C#N)cnc3sc(C#Cc4cncc(CN(C)C)c4)cc23)ccc2[nH]ccc12 [Compound 452, 2-({5-[(dimethylamino)methyl]pyridin-3-yl}ethynyl)-4-[(4-methyl-1H-indol-5-yl)amino]thieno[2,3-b]pyridine-5-carbonitrile]",130 °C (dec.),18

# The next lines start with the values.
melting point,IC50 [1] [nM],SMILES
219 to 221 °C,3700,"N#Cc1cnc2sc(-c3ccccc3)cc2c1NCc1ccc2[nH]ccc2c1 [Compound 124, 4-(1H-indol-5-ylmethylamino)-2-phenylthieno[2,3-b]pyridine-5-carbonitrile]"
219 to 221 °C,9300,"N#Cc1cnc2sc(-c3ccccc3)cc2c1Oc1ccc2[nH]ccc2c1 [Compound 130, 4-(1H-indol-5-yloxy)-2-phenylthieno[2,3-b]pyridine-5-carbonitrile]"
> 245 °C,,"N#Cc1cnc2sc(-c3ccc(C=O)cc3)cc2c1Nc1cccc2[nH]ccc12 [Compound 136, 2-(4-formylphenyl)-4-(1H-indol-4-ylamino)thieno[2,3-b]pyridine-5-carbonitrile]"
> 245 °C,,"N#Cc1cnc2sc(-c3cccc(C=O)c3)cc2c1Nc1cccc2[nH]ccc12 [Compound 139, 2-(3-formylphenyl)-4-(1H-indol-4-ylamino)thieno[2,3-b]pyridine-5-carbonitrile]"
137 to 139 °C,,"N#Cc1cnc2sc(-c3ccccc3C=O)cc2c1Nc1cccc2[nH]ccc12 [Compound 142, 2-(2-formylphenyl)-4-(1H-indol-4-ylamino)thieno[2,3-b]pyridine-5-carbonitrile]"
221 to 223 °C,,"N#Cc1cnc2sc(-c3cccc(C=O)c3)cc2c1Nc1ccc2[nH]ccc2c1 [Compound 144, 2-(3-formylphenyl)-4-(1H-indol-5-ylamino)thieno[2,3-b]pyridine-5-carbonitrile]"
222 to 224 °C,,"N#Cc1cnc2sc(-c3ccccc3C=O)cc2c1Nc1ccc2[nH]ccc2c1 [Compound 184, 2-(2-formylphenyl)-4-(1H-indol-5-ylamino)thieno[2,3-b]pyridine-5-carbonitrile]"
> 250 °C,2050,"N#Cc1cnc2sc(C(=O)O)cc2c1Nc1ccc2[nH]ccc2c1 [Compound 248, 5-cyano-4-(1H-indol-5-ylamino)thieno[2,3-b]pyridine-2-carboxylic acid]"
212 to 215 °C,3210,"N#Cc1cnc2sc(CN3CCCC3)cc2c1Nc1ccc2[nH]ccc2c1 [Compound 267, 4-(1H-indol-5-ylamino)-2-(pyrrolidin-1-ylmethyl)thieno[2,3-b]pyridine-5-carbonitrile]"
210 °C,1160,"CCCCc1cc2c(Nc3ccc4[nH]ccc4c3)c(C#N)cnc2s1 [Compound 271, 2-butyl-4-(1H-indol-5-ylamino)thieno[2,3-b]pyridine-5-carbonitrile]"
226 °C,605,"CCOC(=O)/C=C/c1cc2c(Nc3ccc4[nH]ccc4c3)c(C#N)cnc2s1 [Compound 280, ethyl (2E)-3-[5-cyano-4-(1H-indol-5-ylamino)thieno[2,3-b]pyridin-2-yl]acrylate]"
230 °C (dec.),1960,"N#Cc1cnc2sc(/C=C/C(=O)O)cc2c1Nc1ccc2[nH]ccc2c1 [Compound 281, (2E)-3-[5-cyano-4-(1H-indol-5-ylamino)thieno[2,3-b]pyridin-2-yl]acrylic acid]"
202 °C,657,"CCOC(=O)CCc1cc2c(Nc3ccc4[nH]ccc4c3)c(C#N)cnc2s1 [Compound 284, ethyl 3-[5-cyano-4-(1H-indol-5-ylamino)thieno[2,3-b]pyridin-2-yl]propanoate]"
255 °C,5020,"N#Cc1cnc2sc(CCC(=O)O)cc2c1Nc1ccc2[nH]ccc2c1 [Compound 285, 3-[5-cyano-4-(1H-indol-5-ylamino)thieno[2,3-b]pyridin-2-yl]propanoic acid]"
150 °C (dec.),1690,"N#Cc1cnc2sc(CCc3ccccc3)cc2c1Nc1ccc2[nH]ccc2c1 [Compound 316, 4-(1H-Indol-5-ylamino)-2-(2-phenylethyl)thieno[2,3-b]pyridine-5-carbonitrile]"
198 to 200 °C,125,"CN(C)Cc1cccc(-c2cc3c(Nc4ccc5[nH]ccc5c4)c(C#N)cnc3s2)n1 [Compound 443, 2-{6-[(dimethylamino)methyl]pyridin-2-yl}-4-(1H-indol-5-ylamino)thieno[2,3-b]pyridine-5-carbonitrile]"
> 250 °C,176,"Cc1c(Nc2c(C#N)cnc3sc(C#Cc4cc(CN(C)C)ccn4)cc23)ccc2[nH]ccc12 [Compound 444, 2-({4-[(dimethylamino)methyl]pyridin-2-yl}ethynyl)-4-[(4-methyl-1H-indol-5-yl)amino]thieno[2,3-b]pyridine-5-carbonitrile]"
230 to 232 °C,60,"Cc1c(Nc2c(C#N)cnc3sc(C#Cc4ccc(CN(C)C)nc4)cc23)ccc2[nH]ccc12 [Compound 453, 2-({6-[(dimethylamino)methyl]pyridin-3-yl}ethynyl)-4-[(4-methyl-1H-indol-5-yl)amino]thieno[2,3-b]pyridine-5-carbonitrile]"
